These results are taken from US7935674B2, “Indole derivatives” (Mitsubishi Tanabe Pharma Corporation, priority 2005, dated 2011).

One assay concerns Sprague-Dawley (SD) rats. Put plainly: Urinary glucose excretion test in rats. Type of assay: in vivo, rat. The following applies: male SD rats; 30 mg/kg by oral gavage; urine collected for 24 hours; daily amount of glucose excreted in urine per individual. The method, then:
2. Urinary Glucose Excretion Test in Rats Test Compounds:
Compounds described in the above examples were used for the Urinary glucose excretion test in rats.
6-week-old male Sprague-Dawley (SD) rats were housed in individual metabolic cages with free access to food and water from 2 days prior to the experiment. On the morning of the experiment, rats were administered vehicle (0.2% carboxymethyl cellulose solution containing 0.2% Tween80) or test compounds (30 mg/kg) by oral gavage at a volume of 10 ml/kg. Then, urine of the rat was collected for 24 hours, and the urine volume was measured. Subsequently, the glucose concentration in urine was quantified using the enzymatic assay kit and the daily amount of glucose excreted in urine per individual was calculated.

The target in the next assay is T1, human SGLT2 (Homo sapiens, UniProt P31639).
T1 construct: expressed in transfected cells; host or cells: CHOK1 (Chinese hamster ovary) cells, kept under Geneticin selection
T1 sequence (P31639 1-672): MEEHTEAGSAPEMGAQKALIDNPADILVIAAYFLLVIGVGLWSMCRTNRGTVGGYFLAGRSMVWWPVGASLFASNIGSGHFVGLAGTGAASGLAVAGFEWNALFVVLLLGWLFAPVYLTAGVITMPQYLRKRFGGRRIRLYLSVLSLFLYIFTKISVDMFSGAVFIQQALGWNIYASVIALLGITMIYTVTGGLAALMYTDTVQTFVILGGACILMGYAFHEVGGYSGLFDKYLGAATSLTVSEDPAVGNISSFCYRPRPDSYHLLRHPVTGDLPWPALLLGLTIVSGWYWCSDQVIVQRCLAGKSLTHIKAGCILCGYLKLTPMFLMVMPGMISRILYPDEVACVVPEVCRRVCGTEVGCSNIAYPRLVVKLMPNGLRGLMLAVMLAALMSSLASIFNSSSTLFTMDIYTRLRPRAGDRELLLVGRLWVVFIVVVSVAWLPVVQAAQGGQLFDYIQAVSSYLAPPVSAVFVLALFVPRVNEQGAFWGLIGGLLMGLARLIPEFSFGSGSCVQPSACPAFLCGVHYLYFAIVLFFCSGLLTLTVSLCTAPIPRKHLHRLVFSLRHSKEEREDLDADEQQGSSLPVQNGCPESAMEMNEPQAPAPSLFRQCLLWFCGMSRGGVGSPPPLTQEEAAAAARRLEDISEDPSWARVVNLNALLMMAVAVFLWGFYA
The assay can be described thus: Assay for SGLT2 inhibition (14C-AMG uptake in CHOK1 cells expressing human SGLT2). Type of assay: cell-based. The method, then: 1. Assay for SGLT2 Inhibition
Compounds described in the above examples were used for the SGLT2 inhibition assay.
CHOK1 cells expressing human SGLT2 were seeded in 24-well plates at a density of 400,000 cells/well in F-12 nutrient mixture (Ham's F-12) containing 10% fetal bovine serum, 400 μg/ml Geneticin, 50 units/ml sodium penicillin G (Gibco-BRL) and 50 μg/ml streptomycin sulfate. After 2 days of culture at 37° C. in a humidified atmosphere containing 5% CO2, cells were washed once with the assay buffer (137 mM NaCl, 5 mM KCl, 1 mM CaCl2, 1 mM MgCl2, 50 mM Hepes, and 20 mM Tris, pH 7.4) and incubated with 250 μl of the buffer containing test compounds for 10 min at 37° C. Test compounds were dissolved in DMSO. The final concentration of DMSO was 0.5%. The transport reaction was initiated by addition of 50 μl [^14C]-methyl-α-D-glucopyranoside (^14C-AMG) solution (final concentration, 0.5 mM). After incubation for 2 hours at 37° C., the uptake was stopped by aspiration of the incubation mixture, the cells were washed three times with ice-cold PBS. Then, cells were solubilized with 0.3 N NaOH and aliquots were taken for determination of radioactivity by a liquid scintillation counter. Nonspecific AMG uptake was defined as that which occurred in the presence of 100 μM of phlorizin, a specific inhibitor of sodium-dependent glucose cotransporter. Specific uptake was normalized for the protein concentrations measured by the method of Bradford. The 50% inhibitory concentration (IC50) values were calculated from dose-response curves by least square method.

Where [1] appears, read: CHOK1 cells expressing human SGLT2, 14C-AMG uptake, 0.5 mM, 2 hours at 37° C., read-out: IC50.

The structures appear in SMILES notation. Read-outs that look alike come from different tables or passages of the source.

Regarding `OC[C@H]1O[C@@H](n2cc(Cc3ccc(OCCCl)cc3)c3c(F)cccc32)[C@H](O)[C@@H](O)[C@@H]1O` [Example 13, 3-(4-(2-Chloroethyloxy)phenylmethyl)-4-fluoro-1-(β-D-gluco-pyranosyl)indole], the Urinary glucose result with Sprague-Dawley (SD) rats is “B (2400 mg>B≧2000 mg)”. The IC50 on human SGLT2 (setting [1]) is 6 nM.
For `OC[C@H]1O[C@@H](n2cc(Cc3ccc(OCCCl)cc3)c3c(Cl)cccc32)[C@H](O)[C@@H](O)[C@@H]1O` [Example 19, 4-Chloro-3-(4-(2-chloroethyloxy)phenylmethyl)-1-(β-D-gluco-pyranosyl)indole] the same measures were “A (A≧2400 mg)” and 3.9 nM.
As to `OC[C@H]1O[C@@H](n2cc(Cc3ccc(Cl)cc3)c3c(Br)cccc32)[C@H](O)[C@@H](O)[C@@H]1O` [Example 44, 4-Bromo-3-(4-chlorophenylmethyl)-1-(β-D-glucopyranosyl)indole], the Urinary glucose result with Sprague-Dawley (SD) rats was “B (2400 mg>B≧2000 mg)”. For the same molecule, the 50% inhibitory concentration (IC50) at human SGLT2 (setting [1]) turned out to be 20 nM.
Turning to `CCOc1ccc(Cc2cn([C@@H]3O[C@H](CO)[C@@H](O)[C@H](O)[C@H]3O)c3cccc(F)c23)cc1` [Example 8, 3-(4-Ethoxyphenylmethyl)-4-fluoro-1-(β-D-glucopyranosyl)-indole], the Urinary glucose entry with Sprague-Dawley (SD) rats is on record as “A (A≧2400 mg)”. The IC50 on human SGLT2 (setting [1]) stood at 4.8 nM.
For `OC[C@H]1O[C@@H](n2cc(Cc3ccc(OC(F)(F)F)cc3)c3c(Cl)cccc32)[C@H](O)[C@@H](O)[C@@H]1O` [Example 29, 4-Chloro-3-(4-(trifluoromethoxy)phenylmethyl)-1-(β-D-gluco-pyranosyl)indole] the same measures were “B (2400 mg>B≧2000 mg)” and 9.6 nM.
In the same order, the values of `OC[C@H]1O[C@@H](n2cc(Cc3ccc(C(F)F)cc3)c3c(F)cccc32)[C@H](O)[C@@H](O)[C@@H]1O` [Example 25, 3-(4-(Difluoromethyl)phenylmethyl)-4-fluoro-1-(β-D-gluco-pyranosyl)indole] are “B (2400 mg>B≧2000 mg)” and 11 nM.
In the same order, the values of `CCOc1ccc(Cc2cn([C@@H]3O[C@H](CO)[C@@H](O)[C@H](O)[C@H]3O)c3cc(Cl)cc(Cl)c23)cc1` [Example 28, 4,6-Dichloro-3-(4-ethoxyphenylmethyl)-1-(β-D-glucopyranosyl)-indole] are “B (2400 mg>B≧2000 mg)” and 3.2 nM.
Regarding `OC[C@H]1O[C@@H](n2cc(Cc3ccc(Br)cc3)c3c(Cl)cccc32)[C@H](O)[C@@H](O)[C@@H]1O` [Example 14, 3-(4-Bromophenylmethyl)-4-chloro-1-(β-D-glucopyranosyl)-indole], the Urinary glucose entry with Sprague-Dawley (SD) rats is listed as “A (A≧2400 mg)”. Also, the IC50 on human SGLT2 (setting [1]) stood at 8.1 nM.
In the same order, the values of `OC[C@H]1O[C@@H](n2cc(Cc3ccc(Br)cc3)c3c(Br)cccc32)[C@H](O)[C@@H](O)[C@@H]1O` [Example 41, 4-Bromo-3-(4-bromophenylmethyl)-1-(β-D-glucopyranosyl)indole] are “B (2400 mg>B≧2000 mg)” and 12 nM.
As to `OC[C@H]1O[C@@H](n2cc(Cc3ccc4occc4c3)c3c(F)cccc32)[C@H](O)[C@@H](O)[C@@H]1O` [Example 20, 3-(Benzo[b]furan-5-yl-methyl)-4-fluoro-1-(β-D-glucopyranosyl) indole], the Urinary glucose result with Sprague-Dawley (SD) rats is listed as “A (A≧2400 mg)”. Moreover, the half-maximal inhibitory concentration (IC50) at human SGLT2 (setting [1]) turned out to be 5.7 nM.
In the same order, the values of `OC[C@H]1O[C@@H](n2cc(Cc3ccc(I)cc3)c3c(Br)cccc32)[C@H](O)[C@@H](O)[C@@H]1O` [Example 42, 4-Bromo-3-(4-iodophenylmethyl)-1-(β-D-glucopyranosyl)indole] are “A (A≧2400 mg)” and 6.1 nM.
In the same order, the values of `OC[C@H]1O[C@@H](n2cc(Cc3ccc4occc4c3)c3c(Cl)cccc32)[C@H](O)[C@@H](O)[C@@H]1O` [Example 15, 3-(Benzo[b]furan-5-yl-methyl)-4-chloro-1-(β-D-glucopyranosyl)indole] are “A (A≧2400 mg)” and 3.3 nM.
On to `Cc1cccc2c1c(Cc1ccc(C3CC3)cc1)cn2[C@@H]1O[C@H](CO)[C@@H](O)[C@H](O)[C@H]1O` [Example 47, 3-(4-Cyclopropylphenylmethyl)-4-methyl-1-(β-D-gluco-pyranosyl)indole], for which, in the assay on Sprague-Dawley (SD) rats, the Urinary glucose result is listed as “A (A≧2400 mg)”. 1.6 nM corresponded to half-maximal inhibition against human SGLT2 (IC50).
For the molecule `CCc1ccc(Cc2cn([C@@H]3O[C@H](CO)[C@@H](O)[C@H](O)[C@H]3O)c3cccc(F)c23)cc1` [Example 2, 3-(4-Ethylphenylmethyl)-4-fluoro-1-(β-D-glucopyranosyl)-indole], the Urinary glucose entry with Sprague-Dawley (SD) rats was “A (A≧2400 mg)”. In addition, the IC50 on human SGLT2 (setting [1]) is 5.2 nM.
In the same order, the values of `OC[C@H]1O[C@@H](n2cc(Cc3ccc(I)cc3)c3c(Cl)cccc32)[C@H](O)[C@@H](O)[C@@H]1O` [Example 33, 4-Chloro-3-(4-iodophenylmethyl)-1-(β-D-glucopyranosyl)-indole] are “A (A≧2400 mg)” and 4.1 nM.
For `OC[C@H]1O[C@@H](n2cc(Cc3ccc4occc4c3)c3c(Cl)c(F)ccc32)[C@H](O)[C@@H](O)[C@@H]1O` [Example 34, 3-(Benzo[b]furan-5-yl-methyl)-4-chloro-5-fluoro-1-(β-D-gluco-pyranosyl)indole] the same measures were “B (2400 mg>B≧2000 mg)” and 11 nM.
In the same order, the values of `Cc1cccc2c1c(Cc1ccc3occc3c1)cn2[C@@H]1O[C@H](CO)[C@@H](O)[C@H](O)[C@H]1O` [Example 40, 3-(Benzo[b]furan-5-yl-methyl)-4-methyl-1-(β-D-glucopyranosyl)indole] are “B (2400 mg>B≧2000 mg)” and 6.2 nM.
Consider `OC[C@H]1O[C@@H](n2cc(Cc3ccc(F)cc3)c3c(Cl)cccc32)[C@H](O)[C@@H](O)[C@@H]1O` [Example 27, 4-Chloro-3-(4-fluorophenylmethyl)-1-(β-D-glucopyranosyl)-indole], for which, in the assay with Sprague-Dawley (SD) rats, the Urinary glucose entry is reported as “B (2400 mg>B≧2000 mg)”. The IC50 at human SGLT2 (setting [1]) is 16 nM.
As to `OC[C@H]1O[C@@H](n2cc(Cc3ccc(C(F)F)cc3)c3c(Cl)cccc32)[C@H](O)[C@@H](O)[C@@H]1O` [Example 30, 4-Chloro-3-(4-(difluoromethyl)phenylmethyl)-1-(β-D-gluco-pyranosyl)indole], in the assay with Sprague-Dawley (SD) rats, the Urinary glucose result is listed as “A (A≧2400 mg)”. Besides, the IC50 on human SGLT2 (setting [1]) came out at 3.2 nM.
For `Cc1cccc2c1c(Cc1ccc(Br)cc1)cn2[C@@H]1O[C@H](CO)[C@@H](O)[C@H](O)[C@H]1O` [Example 38, 3-(4-Bromophenylmethyl)-4-methyl-1-(β-D-glucopyranosyl)-indole] the same measures were “B (2400 mg>B≧2000 mg)” and 12 nM.
As to `OC[C@H]1O[C@@H](n2cc(Cc3ccc(I)cc3)c3c(Cl)c(F)ccc32)[C@H](O)[C@@H](O)[C@@H]1O` [Example 37, 4-Chloro-5-fluoro-3-(4-iodophenylmethyl)-1-(β-D-gluco-pyranosyl)indole], the Urinary glucose entry in the assay on Sprague-Dawley (SD) rats was “B (2400 mg>B≧2000 mg)”. In addition, on human SGLT2 (setting [1]), the IC50 amounted to 14 nM.
For `CCOc1ccc(Cc2cn([C@@H]3O[C@H](CO)[C@@H](O)[C@H](O)[C@H]3O)c3cccc(Cl)c23)cc1` [Example 3, 4-Chloro-3-(4-ethoxyphenylmethyl)-1-(β-D-glucopyranosyl)-indole], the Urinary glucose result with Sprague-Dawley (SD) rats is “B (2400 mg>B≧2000 mg)”. For the same molecule, the IC50 on human SGLT2 (setting [1]) amounted to 3.5 nM.
